From US12422427B2, “Compounds for treatment of diseases and methods of screening therefor” (Max-Planck-Gesellschaft zur Förderung der Wissenschaften …, priority 2018, dated 2025)
Each block holds one compound with its values, some of them ahead of it.

How the values were obtained:
HeLa cells = assay: 15N lipoamide uptake by HeLa cells measured by NMR; format: in vitro ADME; conditions: for uptake of the lipoamide present in the medium: 100 μM, 1 h, 37° C., stressed or unstressed HeLa cells
Description: The concentration of lipoamide relative to protein required for an effect on condensate liquidity in vitro was higher than the EC50 on cells, on the order of 100 μM lipoamide with 1 μM FUS (FIGS. 1D-1E, FIGS. 5A-5E). In cells, FUS concentrations are high for a protein (low μM)^41 and the cellular EC50 was on the order of 10 μM (FIG. 2A, FIG. 3D). We also saw inverse effects of lipoamide on FUS-containing condensates in vitro (more, larger condensates) and in cells (fewer stress granules). To reconcile this difference and to understand the relevance of the effects in vitro in cells, we wanted to know the actual concentrations of compounds in cells. In principle, isotopic labelling allows direct monitoring of isotopically-labelled compounds even in complex environment through appropriate spectroscopy. To use this approach, ^15N-labelled lipoamide (FIG. 7A) was synthesised.
Uptake of ^15N lipoamide by cells from the medium was quantified by NMR following incubation of lipoamide at 37° C. for 1 h either in the absence or presence of HeLa cells (FIG. 7B). Cellular uptake was determined by calculating the difference between medium incubated with cells or without cells for combinations of either R-(+) or (±)-lipoamide and either unstressed or stressed cells (FIG. 7C). For one sample, stressed cells with R-(+)-lipoamide, we confirmed that strong signal from the cell fraction was consistent with uptake of a large proportion of lipoamide (FIG. 7C). Both R-(+) and ±-lipoamide measurements indicated uptake of 35±11% (n=3 and 2, respectively) of the lipoamide present in the medium. No significant difference was observed either for uptake of R-(+) compared to (±)-lipoamide or stressed compared to unstressed cells (FIG. 7D).
For analysis of ^15N lipoamide uptake by cells HeLa cells expressing FUS GFP were grown in 6 well plates to 10^6 cells/well in DMEM supplemented with 10% FCS. To simultaneously stress and treat cells, the medium was replaced with 0.6 ml medium supplemented with potassium arsenate and 100 μM ^15N racemic or R-(+)-lipoamide for 1 h at 37° C. High concentrations of compound were used to maximise the signal. […] Wells were prepared for all combinations of no compound (1% DMSO control), ^15N […] or ^15N R-(+)-lipoamide, with or without potassium arsenate and with or without cells. ^1H detected ^15N edited ^1H sensitivity enhanced HSQ was used to quantify ^15N lipoamide concentration (see Supplementary Information). Solvent, pH and temperature sensitivity of the primary amide proton chemical shifts were determined using dummy samples assembled from the appropriate solvent and added compounds.
^1H detected ^15N edited ^1H sensitivity enhanced HSQC NMR (referred to here as (^15N) ^1H) spectra were acquired on a narrow bore Varian solution state spectrometer operating with a fixed field strength of 14.1 T, equipped with a room-temperature probe.
The free induction decay was recorded for an acquisition time of 0.0624 and a sweep with of 8 kHz recorded over 1000 and a recovery delays of 1 s. […] The J coupling between the amide protons and the ^15N in H2O samples was determined to be 96 Hz, and so the transfer times of 1/4 J in the INEPT portions of the pulse sequence were set to 2.6 ms. […]

[1] = test system: HeLa cells expressing FUS GFP; assay: HeLa cell compound dose responses (FUS GFP, arsenate stress); format: cell-based
Description: Small dilution steps rather than concentration replicates were selected as it provides greater statistical power from a set number of samples. Final DMSO concentration was 0.08% in all samples, and each plate included at least 12 control wells with 0.08% DMSO. Cytoplasmic FUS droplet number and nuclear/cytoplasm partition of FUS were analysed using custom macros in ImageJ. Nuclei were identified by intensity thresholding of the blue fluorescence image following a 5 px Gaussian blur. Cytoplasmic FUS droplets by intensity thresholding of the green image following a 10 px weight 0.9 unsharp filter masked by the thresholded nuclei, and nuclear FUS droplets by intensity thresholding of the green image following a 5 px weight 0.9 unsharp filter and 10 px rolling ball background subtraction masked to only include thresholded nuclei. The ratio of cytoplasmic FUS drops to nuclei was taken as cytoplasmic FUS droplets per cell per field of view, and p, the ratio of partition of FUS to the nucleus and the cytoplasm, was derived from a=Vn/vt, the ratio of nuclear to total green signal per field of view, where p=a/(1−a). […] Six fields of view were captured and analysed per condition.

[2] = test system: FUS GFP localisation in stressed HeLa cells; assay: Ex vivo HeLa cell screen of FUS GFP localisation under arsenate stress; format: cell-based; conditions: 10 μM compound 1 h pre-treatment, then 1 h 1 mM potassium arsenate
Text: The inventors developed a cell-based screen using a HeLa cell line that stably expresses GFP-tagged FUS at near-endogenous levels. While not required for stress granule formation, FUS is a well-characterised protein with a domain structure typical of stress granule proteins. In the absence of cellular stress, FUS-GFP primarily localizes to the nucleus, where it is partially excluded from the nucleolus and localises to small puncta called paraspeckles (FIG. 1A). These are nuclear droplets implicated in retaining RNA in the nucleus for rapid stress response. Cells were pre-treated with 10 μM compound from a compound library for 1 h, then the cells were stressed with 1 mM potassium arsenate (still in the presence of compound) (FIG. 1B) and monitored FUS localization to stress granules. Arsenate disrupts antioxidant responses by reacting with thiol groups, blocks the tricarboxylic acid (TCA) cycle by reacting with the thiols in vital lipoyl moieties and causes general oxidative damage. In untreated stressed cells, FUS is partly exported to the cytoplasm where, in combination with other proteins and mRNA, it phase separates to form liquid-like stress granules surrounded by cytoplasm depleted in FUS (FIG. 1A).
Many compounds affected stress granule formation. Multi-parameter image analysis, including cytoplasmic puncta number, nuclear puncta number, and nuclear/cytoplasm partition, was used to rank compounds by strength of effect on FUS localisation in stressed cells (FIG. 1C). […] These were the polysome stabilising compound emetine, which prevents release of mRNA, and the heavy metal chelating compound dimercaprol (which should sequester the stressor). Edaravone, thought to be an antioxidant and used as an ALS therapeutic in Japan and the US, had no effect on FUS localization in arsenate-stressed cells.
The effect of compounds on FUS GFP localisation in stressed HeLa cells was screened in 384 well format. 4000 cells were seeded per well and incubated for 24 h, after which the medium was replaced with 40 μl fresh medium and compound added to a final concentration of 10 μM by acoustic dispensing (Labcyte Echo 550). The final concentration of DMSO in all samples was 0.1%. […]
For the initial screen FUS GFP signal was analysed using KNIME. […] Particle number and sum area, granularity at 9, 10 & 11 px (cytoplasm) or 1, 5, 6, 7, 8 & 9 px (nucleus) scale, texture at 10 px scale and integrated signal intensity were measured for the nucleus and cytoplasm in the green (FUS GFP) channel. Z scores (z=(x−μ)/σ where x is the observed value, μ the control mean and σ the control standard deviation) relative to the DMSO treated control wells on each plate were calculated for each of the parameters, and combined into the Mahalanobis distance.

- uptake of the lipoamide present in the medium (HeLa cells): 35±11%
SMILES: [15NH2]C(=O)CCCC[C@@H]1CCSS1 [R-(+)-lipoamide, ^15N R-(+)-Lipoamide]

- EC50 reducing stress granule number, compared among compounds ([1]; 1 h 1 mM arsenate stress): comparable EC50
SMILES: O=C(O)CCCCC(S)CCS (racemic) [(±)-dihydrolipoic acid, 6,8-dimercaptooctanoic acid]

SMILES: CC1=NN(c2ccccc2)C(=O)C1 [Edaravone]
- effect on stress granules / FUS localisation in stressed cells [2]: no effect

- uptake of the lipoamide present in the medium (HeLa cells): 35±11%
SMILES: [15NH2]C(=O)CCCCC1CCSS1 (racemic) [±-lipoamide, ^15N (±)-Lipoamide]

SMILES: OCC(S)CS (stereo not drawn) [dimercaprol]
- effect on stress granules / FUS localisation in stressed cells [2]: reduction of stress granules

- average intracellular concentration (HeLa cells; calculated from percentage uptake, number of cells and their volume): 5.0 ± 1.6 mM
SMILES: NC(=O)CCCCC1CCSS1 (stereo not drawn) [^15N lipoamide]

SMILES: CC[C@H]1CN2CCc3cc(OC)c(OC)cc3[C@@H]2C[C@@H]1C[C@H]1NCCc2cc(OC)c(OC)cc21 [emetine]
- effect on stress granules / FUS localisation in stressed cells [2]: reduction of stress granules

SMILES: SCCCS [1,3-propanedithol, 1,3-propanedithiol, reference compound]
- effect on stress granule number ([1]; up to 100 μM): no effect

SMILES: CC1=CC(=O)c2ccccc2C1=O [menadione]
- effect on stress granules / FUS localisation in stressed cells [2]: did not reduce stress granule number
